Test results as given in patent publication US20070197557A1, “Fungicidal mixtures” (Basf Aktiengesellschaft, priority 2004, published 2007).

Test system: Erysiphe [syn. Blumeria] graminis forma specialis. tritici
Assay: activity against mildew of wheat, 5 day protective application
Format: in vivo
Conditions: evaluated 7 days after inoculation, Abbot's formula
Description: 1% by weight of the emulsifier Uniperol® EL (wetting agent having emulsifying and dispersant action based on ethoxylated alkylphenols) was added to this solution, and the mixture was diluted with water to the desired concentration.
Use example—activity against mildew of wheat caused by Erysiphe [syn. Blumeria] graminis forma specialis. tritici, 5 day protective application
Theor emulsion had been prepared as described above. […] The test plants were then placed in a greenhouse at temperatures between 20 and 24° C. and at 60 to 90% relative atmospheric humidity. After 7 days, the extent of mildew development was determined visually in % infection of the total leaf area
The visually determined percentages of infected leaf areas were converted into efficacies in % of the untreated control:
The efficacy (E) is calculated as follows using Abbot's formula: E=(1-α/β)·100 • α corresponds to the fungal infection of the treated plants in % and • β corresponds to the fungal infection of the untreated (control) plants in %
An efficacy of 0 means that the infection level of the treated plants corresponds to that of the untreated control plants; an efficacy of 100 means that the treated plants were not infected.

[1] = 12.5 ppm active compound in the spray liquor

Row | Compound | Efficacy in % of the untreated control [1] [%] | Efficacy in % of the untreated control (50 ppm active compound in the spray liquor) [%] | Efficacy in % of the untreated control (25 ppm active compound in the spray liquor) [%]
1 | CC1CCN(c2c(-c3c(F)cc(F)cc3F)c(Cl)nc3ncnn23)CC1 [I, 5-chloro-7-(4-methylpiperidin-1-yl)-6-(2,4,6-trifluorophenyl)-[1,2,4]triazolo[1,5-a]pyrimidine] | 9 | 35 | –
2 | CCCOc1nc2ccc(I)cc2c(=O)n1CCC [II.1-1, proquinazid] | 67 | – | 80
